The values that follow come from US20220218878A1, “CONTROLLED HEAT DELIVERY COMPOSITIONS” (BAMBU VAULT LLC, priority 2019, published 2022).

A short description of series [1]: Surfactant effect on tetrakis aminium dye retention and particle size during emulsification. The conditions noted are these: emulsion and evaporation process; emulsifier as labelled. Format: physicochemical. As for the experimental part: The preparation of the aqueous phase: under the stirring with an IKA Ultra-Turrax® T 25 homogenizer at 8000 RPM, 1.2 g of sodium dodecyl sulfate (SDS) was added into 190 g of 4.9% aqueous polyvinyl alcohol (PVA) solution placed in a round bottom flask. An aqueous solution of SDS containing 4.9% PVA was formed after the dissolution of SDS (the aqueous phase).
The preparation of the organic phase: to 88 g of dichloromethane was added 8.0 g of DSM NeoCryl® B-805 polymer (MMA/BMA copolymer), 1.82 g of Epolight™ 1117 dye, and 0.65 g of Cyanox® 1790 in 88 g to allow the formation of a clear solution of B805 polymer and dyes (the polymer: dye weight ratio=4.4:1).
The organic phase (polymer and dyes dissolved in dichloromethane) was injected directly into the aqueous phase (PVA solution with SDS surfactant) at the tip of the Turrax's roto-stator (i.e. directly into the flow being sheared by the roto-stator). The shear mixing at 8000 RPM was continued for 30 minutes. The resulting mixture was decanted into an open-mouth container and stirred magnetically for 16 hours. A solid suspension of particles containing IR dye was obtained. […]
Particle Size and Distribution for the particle heaters The particle size and size distribution of the NIR dye/MMA/BMA copolymer particles were measured by a Horiba LA-950 Particle Size Analyzer in distilled water with pH 7.4 (FIG. 3). […]

Series [2] is described as follows: Screening of acrylic polymer carriers and additives for particle performance. It is filed as physicochemical. The note with it: additive within the particles. From the text: Various commercially available acrylic polymers were screened for preferred particle performance characteristic such as particle size distribution, IR dye stability and encapsulation efficiency.
The loading of dyes within the particles is as high as possible without degrading the cohesion of the polymer. The additives that stabilize the dye within the particles have been studied.

With `CCCCCCCCCCCCCOC(=O)CC(C(=O)OCCCCCCCCCCCCC)S(=O)(=O)O.[Na]` (stereo not drawn) [Aerosol® TR-70, sodium bis(tridecyl) sulfosuccinate], the “Epolight™ 1117 retention in the particles” value in series [1] stood at 50%.
With `Cc1cc(C(C)(C)C)c(O)c(C)c1Cn1c(=O)n(Cc2c(C)cc(C(C)(C)C)c(O)c2C)c(=O)n(Cc2c(C)cc(C(C)(C)C)c(O)c2C)c1=O` [Cyanox® 1790, 1,3,5-tris(4-tert-butyl-3-hydroxy-2,6-dimethylbenzyl)-1,3,5-triazine-2,4,6-(1H,3H,5H)-trione], in series [2], the “impact on dye stability” value is given as “positive impact on dye stability”.
As to `CCCCCCCCCCCCOS(=O)(=O)[O-].[Na+]` [Sodium dodecyl sulfate, sodium dodecyl sulfate], the “Epolight™ 1117 retention in the particles” value in series [1] is 85-90%.
